One data set deals with CAMKK2 (Homo sapiens, UniProt Q96RR4). Set-up: purified recombinant CAMKK2 (100 pM) was incubated in assay buffer; method as in earlier work. The note with it: reported CAMKK2 inhibitors; ref 47 (Price et al.); cited from earlier work.
The nature of data set [1]: Single dose IP pharmacokinetic study in mice. Type of data set: in vivo, CD-1 mice. The note with it: mouse, 10 mg/kg IP, plasma at 0.5, 1, 3, 8 h. On the procedure:
CD-1 mice with weights 23–25 g were purchased from Charles River Laboratories.
The animal experiments were performed at Alliance Pharma (Malvern, PA, USA) in accordance with the guide for the care and use of laboratory animals. Alliance Pharma is accredited by the Association for Assessment and Accreditation of Laboratory Animal Care (AAALAC).
The test compounds were dissolved in DMSO and then diluted to the appropriate concentration with the vehicle. For formulation we targeted the minimal amount of DMSO that could be used in combination with a formulation composed of 0.5% HPMC/0.2% Polysorbate 80. […] Blood was collected at t = 0.5, 1, 3, and 8 h and immediately spun for 3 min, the plasma was collected, and compound levels were quantified with HPLC/MS. The raw data are available in the Supplemental Information.
With the probe molecule having favorable selectivity and potency in vitro and in a cellular context, we next wanted to determine its suitability for in vivo experiments. SGC-CAMKK2-1 (5) was progressed to a single dose mouse intraperitoneal (I.P) experiment.

Data set [2] deals with p-AMPK(Thr172) in C4-2 cells. Put plainly: Western blot of p-AMPK(Thr172) in C4-2 prostate cancer cells. Type of data set: cell-based. As to conditions: C4-2, 24 h, 24 h treatment, three individual experiments, read-out: IC50 for decrease of p-AMPK(Thr172) normalized to total AMPK. On the procedure:
C4-2 cells were plated in 6-well plates in IMEM medium containing 0.5% FBS. After 72 h, the cells were then treated with the compounds for 24 h before the media was aspirated and cells were washed twice in ice-cold PBS. Cells were lysed using RIPA buffer containing phosphatase and protease inhibitor cocktail while rotating for 30 min at 4 °C. In each lane, 30 μg/well of protein lysate was loaded into a 10% SDS-PAGE gel and run for 1 h and 30 min. Gels were then transferred overnight in a TRIS-glycine/methanol transfer buffer onto a PVDF membrane at 4 °C. Membranes were blocked, incubated with primary overnight at 4 °C, washed, incubated with secondary at room temperature for 1 h, washed, and then developed on an Azure Biosystems C-600 imager. Densitometry was performed using ImageJ. Total-AMPK was normalized to GAPDH and then p-AMPK was normalized to normalized total-AMPK. Normalized p-AMPK was used to calculate IC50 in GraphPad Prism 9.5.0. Primary antibodies used were from Cell Signaling (Danvers, MA, USA; Phospho-AMPKα (Thr172) (40H9) Rabbit mAb: Cat#: 2535; AMPKα (D5A2) Rabbit mAb Cat#: 5831), BD Bioscience (Franklin Lakes, NJ, USA; CAMKK2 mouse mAb Cat# 610544), and Sigma (St. Louis, MO, USA; GAPDH rabbit pAb: Cat# G9545). Secondary antibody (Goat Anti-Rabbit IgG (H + L)-HRP Conjugate; Cat#:1706515) was from Bio-Rad Laboratories (Hercules, CA, USA).
In this experiment, IC50 was calculated via quantifying changes in p-AMPK(Thr172) normalized to total AMPK levels.
(In western blotting, separated proteins are transferred to a membrane and probed.)

Data on three compounds can be found in publication PMC9856672, “SGC-CAMKK2-1: A Chemical Probe for CAMKK2” (Cells, 2023).

A word on the IC50: it is the concentration needed to halve the response being measured.

With `CN(C)Cc1ccc(-c2cc3c(-c4ccc(C(N)=O)cc4)ccnc3[nH]2)cc1` [Compound 3], the “pIC50 (CAMKK2)” value on CAMKK2 is recorded as 8.5.

With `O=C(O)c1ccc(-c2ccnc(Nc3cccc(-c4ccccc4)c3)n2)cc1` [Compound 4], on CAMKK2, the “pIC50 (CAMKK2)” value is given as 8.1.

Regarding `O=C(O)c1ccc2c3c1cccc3c(=O)n1c3ccccc3nc21` [STO-609, reference compound], the “plasma concentration / in vivo PK (in words)” value in data set [1] was “considerably higher plasma concentrations than SGC-CAMKK2-1”. Moreover, the IC50 in data set [2] is 10.7 µM.
